Experimental data taken from patent US5028593A, “Tuftsin analogs” (Board of Regents, The University of Texas System, priority 1989, dated 1991).
Residues, ends and D or L forms follow the SMILES beside them.

Columns and labels:
Splenocytes = test: Thymidine incorporation assay (growth stimulation); format: cell-based, C57BL/6 female mouse; conditions: compared to tuftsin; peptide 10 μg/ml; adherent and non-adherent splenocytes; 3H-thymidine
Description: Spleen is obtained from C57BL/6 female mouse (approximately 3 months old). Splenocytes are prepared by teasing the spleen and passing them through a sieving screen. These cells in HBSS with 2% FBS are then layered over LSM and centrifuged. The cells at interphase are collected, washed with RPMI-1640 medium with 2% FBS, suspended in the same medium at 1×10^6 cells/ml, and plated into wells (1×10^6 cells per well). The plate is incubated for 45 min. in the incubator. Non-adherent cells in each well are transferred to a new well. Adherent cells and non-adherent cells are incubated in separate wells with peptide (10 μg/ml) for 6 hours in 1 ml RPMI-1640 medium with 2% FBS. ^3 H-thymidine (0.1 μCi per well) is then introduced. The plate is kept in the incubator for another 18 hours. Each well is washed and cells are collected into a tube using 1 ml of cold HBSS. After washing the cells twice, the cells are counted, mixed with 0.2 ml of 0.1% sodium dodecyl sulfate, and transferred to a liquid scintillation vial for determination of radioactivity.

[1] = system: Human polymorphonuclear leukocytes (PMN); test: Phagocytosis assay; format: cell-based; conditions: compared to tuftsin; statistically significant differences at peptide concentrations of 0.1, 1.0 and 10 μg/ml; fluorescent microspheres, 15 min
Description: Human polymorphonuclear leukocytes (PMN) are prepared from venous blood of healthy donors. Heparinized blood is mixed with dextran and kept at 37° C. for 1 hour. The leukocyte-rich plasma is collected and centrifuged. The resulting pellet is washed with Hank's balanced salt solution (HBSS). The pellet is then suspended into HBSS, layered over Lymphocyte Separation Medium (LSM) and centrifuged. The sedimented cells are washed with HBSS. Contaminant erythrocytes are lysed by suspending the cells in sterile water for 15 seconds. The isotonicity is then restored by adding 10XHBSS. After centrifuging, the PMN are washed with HBSS, suspended in the same medium, counted, and adjusted to 1×10^6 viable cells/ml (viability>95% by trypan blue dye exclusion). Cells (0.5×10^6 cells/well) are plated in 24 well plate and placed in a 37° C. CO2 incubator for 30 min. to form a monolayer. Thereafter the supernatant is aspirated. Tuftsin or analog in 250 μl HBSS and 1.25×10^7 fluorescent microspheres (2 μm diameter) in 250 μl HBSS, are added to each well resulting in a particle to PMN ratio of 25:1, mixed, and incubated for 15 min. The supernatant is then quickly aspirated and each well washed with HBSS. […] After 10 min, % phagocytosis (% of PMN containing one or more particles) is counted under a microscope. […]

K-562 tumor target cells = test: Tumor cell cytotoxicity assay by human natural killer (NK) cells (51Cr release); format: cell-based; conditions: compared to tuftsin; NK cells activated 1 hour with 10 μg peptide per ml; 4 hour 51Cr release, K-562 targets
Description: A leukocyte-rich buffy coat preparation obtained from leukophoresis of a normal volunteer is used. Buffy coat is diluted with HBSS, layered over LSM, and centrifuged. The mononuclear cells at interphase are collected, washed with HBSS, suspended in RPMI-1640 medium with 10% FBS, adjusted to 5×10^6 /l ml, plated on Petri dishes (10 ml each), and incubated for 1 hour. Non-adherent cells are collected, poured into bottles containing nylon wool wet with HBSS, and kept in the incubator for 1 hour. Non-adherent cells are collected, suspended in RPMI-1640 medium with 10% FBS, adjusted to 2×10^7 /ml, mixed (1:1 volume ratio) with sheep red blood cells (6×10^8 /ml), placed in 29° C. bath for 15 min., centrifuged, and again placed in 29° C. bath for another hour. Cell clumps are gently broken up, layered over LSM, and centrifuged. […]
The viability of this NK cell enriched fraction is assessed with trypan blue, and washed with RPMI-1640 medium with 5% FBS. […] Filters containing radioactive supernatants are counted on a γ counter and counts per minutes (cpm) are recorded. Percent cytotoxicity (% specific lysis) is calculated by the following formula: [formula] […] Maximum cpm is obtained by releasing the radioactivity from the target cells by treatment with Triton X-100.

CC(C)C[C@H](NC(=O)[C@H](CCCCN)NC(=O)[C@@H](N)[C@@H](C)O)C(=O)N[C@@H](CCCCN)C(=O)O [tuftsin analog, L-Thr-L-Lys-L-Leu-L-Lys] (H-TKLK-OH)
stimulating thymidine incorporation (growth stimulation) (Splenocytes): significantly greater activity in stimulating thymidine incorporation (growth stimulation) than did tuftsin | stimulation of phagocytosis (% phagocytosis) [1]: significantly greater stimulation of phagocytosis at lower concentrations compared to tuftsin itself | tumor cell cytotoxicity enhancement of human NK cells (K-562 tumor target cells): significantly greater tumor cell cytotoxicity enhancement of human NK cells
